Reference: US12024506B2, “Compounds” (Oxford University Innovation Limited, priority 2018, dated 2024)

What was measured:
[1] = test system: H358 cells (ATCC CRL-5807); experiment: Cell viability assay 1 (CellTiter-Glo), H358 cells; format: cell-based; conditions: Homo sapiens, NCI-H358, 48 h, first value of the cell, read-out: Cell Viability H358 (concentration that decreases cell viability by 50%)
Procedure, shortened: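 H358 cells were grown in RPMI-1640 with 10% FCS and 2 mM L-glutamine, plated at 5000 cells/well and allowed to adhere overnight. Compound was added in 0.5% DMSO final for 48 h at 37° C. Viability was read by CellTiter-Glo luminescence, with the 50% viability-reducing concentration derived from dose-response curves.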

[2] = test system: DLD1 cells (ATCC CCL-221); experiment: Cell viability assay 1 (CellTiter-Glo), DLD1 cells; format: cell-based; conditions: Homo sapiens, DLD-1 cells, 48 h, second value of the cell, read-out: Cell Viability DLD-1 (concentration that decreases cell viability by 50%)
Procedure, shortened: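 DLD1 cells grown in RPMI-1640 with 10% FCS, 2 mM L-glutamine, 37 °C, 5% CO2, plated overnight then exposed to compound (0.5% DMSO) for 48 h. Viability by CellTiter-Glo luminescence; value is concentration reducing viability by 50% from dose-response curves.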

[3] = molecular target: T1, GST-human KRas166 (G12V) GPPNHP (Homo sapiens, UniProt P01116, G12V); experiment: KRas small-molecule screening by SPR (Biacore T200); format: binding; conditions: compound 100 uM, 5% DMSO buffer; immobilised GST-KRas166 (G12V) GPPNHP
T1 construct: made in house; host or cells: E. coli C41(DE3)
Procedure, shortened: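 GST-KRas166 G12V loaded with GPPNHP, captured on anti-GST CM5 chip at 10,000–15,000 RU, GST reference channel. Compounds run at 100 uM in buffer with 100 mM NaCl, 5 mM MgCl2, 5% DMSO, with DMSO solvent correction; Rmax for 1:1 binding taken as 63 RU.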

| Structure (SMILES) | IC50 [1] [µM] | IC50 [2] [µM] | SPR Response Units [3] [Response Units] |
| --- | --- | --- | --- |
| COc1nc(-c2cccc3c2OCCO3)ccc1Nc1ccc(Cn2ccnc2)cc1 [Example 58, [6-(2,3-Dihydro-benzo[1,4]dioxin-5-yl)-2-methoxy-pyridin-3-yl]-(4-imidazol-1-ylmethyl-phenyl)-amine] | 19 | 16.2 | 269 |
| COc1cc(NC(=O)N[C@@H]2CC[C@H](NC(=O)OCc3ccccc3)C2)cc(-c2cccc3c2OC(CNC(=O)C2CCOCC2)CO3)n1 (stereo partly drawn) [Example 100, ((1S,3R)-3-{3-[2-Methoxy-6-(3-{[(tetrahydro-pyran-4-carbonyl)-amino]-methyl}-2,3-dihydro-benzo[1,4]dioxin-5-yl)-pyridin-4-yl]-ureido}-cyclopentyl)-carbamic acid benzyl ester] | 28 | 5 | 97 |
| COc1nc(-c2cccc3c2OCCO3)ccc1Nc1ccc(C(=O)NCc2cccnc2)cc1 [Example 175, 4-[6-(2,3-Dihydro-benzo[1,4]dioxin-5-yl)-2-methoxy-pyridin-3-ylamino]-N-pyridin-3-ylmethyl-benzamide] | 15.8 | 8.2 | 63 |
| COc1nc(-c2cccc3c2OCCO3)ccc1Nc1ccc(C(=O)NCC2CCC(=O)NC2)cc1 (stereo not drawn) [Example 159] | 24.7 | 14.1 | 122 |
| COc1nc(-c2cccc3c2OCCO3)ccc1Nc1cccc(CN2CCOCC2)c1 [Example 61, [6-(2,3-Dihydro-benzo[1,4]dioxin-5-yl)-2-methoxy-pyridin-3-yl]-(3-morpholin-4-ylmethyl-phenyl)-amine] | 20.1 | 12.2 | 61 |
| CN1CCN(Cc2ccc(C(=O)NCC3COc4cccc(-c5cc(OCc6ccccc6)ccn5)c4O3)o2)CC1 (stereo not drawn) [Example 106, 5-(4-Methyl-piperazin-1-ylmethyl)-furan-2-carboxylic acid [8-(4-benzyloxy-pyridin-2-yl)-2,3-dihydro-benzo[1,4]dioxin-2-ylmethyl]-amide] | 27 | 11 | 114 |
| COc1nc(-c2cccc3c2OCCO3)ccc1Nc1cccc(CC(=O)NC2CCC(=O)NC2)c1 (stereo not drawn) [Example 206, 2-{3-[6-(2,3-Dihydro-benzo[1,4]dioxin-5-yl)-2-methoxy-pyridin-3-ylamino]-phenyl}-N-(6-oxo-piperidin-3-yl)-acetamide] | 11 | 35.9 | 151 |
| COc1cc(-c2cccc3c2OCCO3)ccc1Nc1ccc(CNCC2COCCN2)cc1 (stereo not drawn) [Example 132, [4-(2,3-Dihydro-benzo[1,4]dioxin-5-yl)-2-methoxy-phenyl]-(4-{[(morpholin-3-ylmethyl)-amino]-methyl}-phenyl)-amine] | 12.7 | 11 | 204 |
| COc1nc(-c2cccc3c2OCCO3)ccc1Nc1ccc(CNC[C@@H]2COCCN2)cc1 [Example 128, [6-(2,3-Dihydro-benzo[1,4]dioxin-5-yl)-2-methoxy-pyridin-3-yl]-(4-{[((R)-1-morpholin-3-ylmethyl)-amino]-methyl}-phenyl)-amine] | 6.7 | 9.5 | 99 |
| COc1nc(-c2cccc3c2OCCO3)ccc1Nc1cccc(CNCC2CCNC(=O)C2)c1 (stereo not drawn) [Example 194, 4-({3-[6-(2,3-Dihydro-benzo[1,4]dioxin-5-yl)-2-methoxy-pyridin-3-ylamino]-benzylamino}-methyl)-piperidin-2-one] | > 150 | 11.2 | 359 |
| COc1nc(-c2cccc3c2OCCO3)ccc1Nc1ccc(CNCC2CCNC(=O)C2)cc1 (stereo not drawn) [Example 201, 4-({4-[6-(2,3-Dihydro-benzo[1,4]dioxin-5-yl)-2-methoxy-pyridin-3-ylamino]-benzylamino}-methyl)-piperidin-2-one] | 6.8 | 10.5 | 209 |
| COc1nc(-c2cccc3c2OCCO3)ccc1Nc1ccc(C(=O)NCc2cn[nH]c2)cc1 [Example 160] | 20.7 | 11 | 89 |
| COc1nc(-c2cccc3c2OCCO3)ccc1Nc1cccc(CC(=O)NC2CCNC(=O)C2)c1 (stereo not drawn) [Example 205, 2-{3-[6-(2,3-Dihydro-benzo[1,4]dioxin-5-yl)-2-methoxy-pyridin-3-ylamino]-phenyl}-N-(2-oxo-piperidin-4-yl)-acetamide] | 12.2 | 51.6 | 142 |
| COc1cccc(-c2cccc3c2OC(CNCc2ccc(OCCN(C)C)cc2)CO3)n1 (stereo not drawn) [Example 26, {2-[4-({[8-(6-Methoxy-pyridin-2-yl)-2,3-dihydro-benzo[1,4]dioxin-2-ylmethyl]-amino}-methyl)-phenoxy]-ethyl}-dimethyl-amine] | 95 | 4 | 53 |
| COc1nc(-c2cccc3c2OCCO3)ccc1Nc1cccc([C@@H]2CCCN2)c1 [Example 75, [6-(2,3-Dihydro-benzo[1,4]dioxin-5-yl)-2-methoxy-pyridin-3-yl]-((S)-3-pyrrolidin-2-yl-phenyl)-amine] | 2.6 | 4 | 112 |
| COc1nc(-c2cccc3c2OCCO3)ccc1Nc1ccc(CNCC2CCN(C(=O)OC(C)(C)C)CC2)cc1 [Example 171, 4-({4-[6-(2,3-Dihydro-benzo[1,4]dioxin-5-yl)-2-methoxy-pyridin-3-ylamino]-benzylamino}-methyl)-piperidine-1-carboxylic acid tert-butyl ester] | 6.6 | 0.14 | 30 |
| c1cc2c(c(-c3cnc(Nc4ccc(CNCC5COCCN5)cc4)cn3)c1)OCCO2 (stereo not drawn) [Example 155, [5-(2,3-Dihydro-benzo[1,4]dioxin-5-yl)-pyrazin-2-yl]-(4-{[(morpholin-3-ylmethyl)-amino]-methyl}-phenyl)-amine] | 12.7 | 0.56 | 71 |
| COc1nc(-c2cccc3c2OCCO3)ccc1Nc1ccc(CNCC2CNC(=O)C2)cc1 (stereo not drawn) [Example 173, 4-({4-[6-(2,3-Dihydro-benzo[1,4]dioxin-5-yl)-2-methoxy-pyridin-3-ylamino]-benzylamino}-methyl)-pyrrolidin-2-one] | 7.4 | 4 | 147 |
| COc1nc(-c2cccc3c2OC(CNC(=O)C2CCOCC2)CO3)ccc1Nc1ccc(CNCC2COCCN2)cc1 (stereo not drawn) [Example 127, Tetrahydro-pyran-4-carboxylic acid{8-[6-methoxy-5-(4-{[(morpholin-3-ylmethyl)-amino]-methyl}-phenylamino)-pyridin-2-yl]-2,3-dihydro-benzo[1,4]dioxin-2-ylmethyl}-amide] | 16.9 | 18.9 | 205 |
| COc1nc(-c2cccc3c2OCCO3)ccc1Nc1cccc(C(=O)NCC2CCNCC2)c1 [Example 180, 3-[6-(2,3-Dihydro-benzo[1,4]dioxin-5-yl)-2-methoxy-pyridin-3-ylamino]-N-piperidin-4-ylmethyl-benzamide] | 8.6 | 0.65 | 197 |
| CN(C)Cc1cccc(Nc2ccc(-c3cccc4c3OCCO4)[nH]c2=O)c1 [Example 153, 6-(2,3-Dihydro-benzo[1,4]dioxin-5-yl)-3-(3-dimethylaminomethyl-phenylamino)-1H-pyridin-2-one] | 0.6 | 0.14 | 90 |
| COc1nc(-c2cccc3c2OCCO3)ccc1Nc1ccc(CN(C)C)cn1 [Example 57, [6-(2,3-Dihydro-benzo[1,4]dioxin-5-yl)-2-methoxy-pyridin-3-yl]-(5-dimethylaminomethyl-pyridin-2-yl)-amine] | 29 | 20.2 | 77 |
| COc1nc(-c2cccc3c2OCCO3)ccc1Nc1cccc(CC(=O)NCC2CCN(C)CC2)c1 [Example 202, 2-{3-[6-(2,3-Dihydro-benzo[1,4]dioxin-5-yl)-2-methoxy-pyridin-3-ylamino]-phenyl}-N-(1-methyl-piperidin-4-ylmethyl)-acetamide] | 17.5 | 10.5 | 387 |
| COc1nc(-c2cccc3c2OCCO3)ccc1Nc1cccc(CNCC2CCN(C)CC2)c1 [Example 189, [6-(2,3-Dihydro-benzo[1,4]dioxin-5-yl)-2-methoxy-pyridin-3-yl]-(3-{[(1-methyl-piperidin-4-ylmethyl)-amino]-methyl}-phenyl)-amine] | 44.9 | 1.4 | 552 |
| COc1nc(-c2cccc3c2OCCO3)ccc1Nc1ccc(C(=O)NCC2CCN(C)CC2)cc1 [Example 158, 4-[6-(2,3-Dihydro-benzo[1,4]dioxin-5-yl)-2-methoxy-pyridin-3-ylamino]-N-(1-methyl-piperidin-4-ylmethyl)-benzamide] | 20.6 | 3.5 | 269 |
